Source: US6506772B1, “Substituted [1,2,4]triazolo[1,5a]pyridine derivatives with activity as adenosine receptor ligands” (Hoffmann-La Roche Inc., priority 2000, dated 2003)
Where two headings read alike, the source gives them in different places.

What was measured:
[1] = molecular target: T1, human adenosine A2A receptor (Homo sapiens, UniProt P29274); assay: Human adenosine A2A receptor [3H]-SCH-58261 binding assay
T1 construct: expressed in transfected cells; host or cells: CHO cells, Semliki Forest virus expression system; membrane preparation
T1 sequence (P29274 whole entry): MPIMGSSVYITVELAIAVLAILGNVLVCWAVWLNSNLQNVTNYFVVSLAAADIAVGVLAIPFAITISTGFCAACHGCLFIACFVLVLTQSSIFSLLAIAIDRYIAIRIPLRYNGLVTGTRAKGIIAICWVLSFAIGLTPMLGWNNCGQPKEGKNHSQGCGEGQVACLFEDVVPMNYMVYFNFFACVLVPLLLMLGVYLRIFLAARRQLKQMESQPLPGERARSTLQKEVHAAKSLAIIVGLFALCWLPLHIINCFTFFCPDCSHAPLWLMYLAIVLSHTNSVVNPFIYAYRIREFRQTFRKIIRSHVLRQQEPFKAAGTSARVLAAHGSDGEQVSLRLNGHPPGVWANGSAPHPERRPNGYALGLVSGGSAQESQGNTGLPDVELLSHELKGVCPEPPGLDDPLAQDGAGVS

HA1 adenosine receptor = molecular target: T2, HA1 adenosine receptor (Homo sapiens, UniProt P30542); assay: Human adenosine A1 receptor affinity (Ki hA1); type: binding
T2 sequence (P30542 1-326): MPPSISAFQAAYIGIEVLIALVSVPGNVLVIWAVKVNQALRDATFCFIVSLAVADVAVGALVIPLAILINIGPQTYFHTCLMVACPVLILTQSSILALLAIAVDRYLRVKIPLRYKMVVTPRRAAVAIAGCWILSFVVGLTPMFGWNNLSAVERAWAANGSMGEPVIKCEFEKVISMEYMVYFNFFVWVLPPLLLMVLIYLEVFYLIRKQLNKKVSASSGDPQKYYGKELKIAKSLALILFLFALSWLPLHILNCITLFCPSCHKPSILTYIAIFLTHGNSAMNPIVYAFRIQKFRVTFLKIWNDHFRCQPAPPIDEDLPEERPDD

[2] = recombinant human A2A in CHO cell membranes, [3H]-SCH-58261, Cheng-Prussoff, read-out: Ki hA2A
[3] = affinity to human adenosine A2A receptor, read-out: Ki HA2A
[4] = calculated ratio of the affinity to the HA1 receptor to the HA2a receptor
[5] = affinity to human adenosine A1 receptor

SMILES	selectivity (A1/A2a) ([1]; ratio KiHA1 divided by KiHA2A)	Ki [1, 2] [µM]	Ki (HA1 adenosine receptor) [µM]	Ki [1, 3] [µM]	selectivity (A1/A2a) [1, 4]	Ki (HA1 adenosine receptor; [5]) [µM]
CCCCN(CCC)C(=O)c1cc(N)n2nc(-c3ccccn3)nc2c1 [Example 427, 5-Amino-2-pyridin-2-yl-[1,2,4]triazolo[1,5-a]pyridine-7-carboxylic acid butyl-propyl-amide]	11.7	0.102	1.19	–	–	–
CC1CCCN(C(=O)c2cc(N)n3nc(-c4nccs4)nc3c2)C1 (stereo not drawn) [Example 316, (5-Amino-2-thiazol-2-yl-[1,2,4]triazolo[1,5-a]pyridin-7-yl)-(3,methyl-piperidin-1-yl)-methanone]	–	–	–	0.0723	30.3	2.19
CN(Cc1ccccc1)C(=O)c1cc(N)n2nc(-c3nccs3)nc2c1 [Example 204, 5-Amino-2-thiazol-2-yl-[1,2,4]triazolo[1,5-a]pyridine-7-carboxylic acid benzyl-methyl-amide]	–	–	–	0.0417	7.8	0.325
Nc1cc(C(=O)N2CCCCCC2)cc2nc(-c3ccc(Br)o3)nn12 [Example 296]	–	–	–	0.0017	31.0	0.0527
CC(C)N(C(=O)c1cc(N)n2nc(-c3ccc(Br)o3)nc2c1)C(C)C [Example 276, 5-Amino-2-(5-bromo-furan-2-yl)-[1,2,4]triazolo[1,5-a]pyridine-7-carboxylic acid diisopropylamide]	–	–	–	0.0101	22.6	0.229
CCN(C(=O)c1cc(N)n2nc(-c3sccc3C)nc2c1)C(C)C [Example 143, 5-Amino-2-(3-methyl-thiophen-2-yl)-[1,2,4]triazolo[1,5-a]pyridine-7-carboxylic acid ethyl-isopropyl-amide]	–	–	–	0.121	9.0	1.09
CC1CCN(C(=O)c2cc(N)n3nc(-c4nccs4)nc3c2)CC1 [Example 330, (5-Amino-2-thiazol-2-yl-[1,2,4]triazolo[1,5-a]pyridin-7-yl)-(4-methyl-piperidin-1-yl)-methanone]	–	–	–	0.0644	43.1	2.78
CN(Cc1ccccc1)C(=O)c1cc(N)n2nc(-c3ccccn3)nc2c1 [Example 32, 5-Amino-2-pyridin-2-yl-[1,2,4]triazolo[1,5-a]pyridine-7-carboxylic acid benzyl-methyl-amide]	–	–	–	0.0286	10.1	0.288
COCCN(C)C(=O)c1cc(N)n2nc(-c3nccs3)nc2c1 [Example 397, 5-Amino-2-thiazol-2-yl-[1,2,4]triazolo[1,5-a]pyridine-7-carboxylic acid (2-methoxy-ethyl)-methyl-amide]	18.4	0.298	5.49	–	–	–
CCCCN(CCC)C(=O)c1cc(N)n2nc(-c3nccs3)nc2c1 [Example 334, 5-Amino-2-thiazol-2-yl-[1,2,4]triazolo[1,5-a]pyridine-7-carboxylic acid butyl-propyl-amide]	–	–	–	0.098	18.3	1.79
CC1CCC(C)N1C(=O)c1cc(N)n2nc(-c3nccs3)nc2c1 (stereo not drawn) [Example 301]	–	–	–	0.0621	30.5	1.9
Nc1cc(C(=O)NC2CCC2)cc2nc(-c3cccnc3)nn12 [Example 81, 5-Amino-2-pyridin-3-yl-[1,2,4]triazolo[1,5-a]pyridine-7-carboxylic acid cyclobutylamide]	–	–	–	0.315	13.9	4.39
CN(C(=O)c1cc(N)n2nc(-c3ccccc3)nc2c1)C1CCCCC1 [Example 148, 5-Amino-2-phenyl-[1,2,4]triazolo[1,5-a]pyridine-7-carboxylic acid cyclohexyl-methyl-amide]	–	–	–	0.148	8.1	1.2
CCN(CC)C(=O)c1cc(N)n2nc(-c3cccs3)nc2c1 [Example 127, 5-Amino-2-thiophen-2-yl-[1,2,4]triazolo[1,5-a]pyridine-7-carboxylic acid diethylamide]	–	–	–	0.104	18.9	1.97
CCN(Cc1ccncc1)C(=O)c1cc(N)n2nc(-c3nccs3)nc2c1 [Example 325, 5-Amino-2-thiazol-2-yl-[1,2,4]triazolo[1,5-a]pyridine-7-carboxylic acid ethyl-pyridin-4-ylmethyl-amide]	–	–	–	0.0376	35.2	1.33
Nc1cc(C(=O)N2CCOCC2)cc2nc(-c3ccc(Cl)o3)nn12 [Example 237, [5-Amino-2-(5-chloro-furan-2-yl)-[1,2,4]triazolo[1,5-a]pyridin-7-yl]-morpholin-4-yl-methanone]	–	–	–	0.0523	13.5	0.708
NC(=O)C1CCN(C(=O)c2cc(N)n3nc(-c4ccc(Cl)o4)nc3c2)CC1 [Example 259, 1-[5-Amino-2-(5-chloro-furan-2-yl)-[1,2,4]triazolo[1,5-a]pyridine-7-carbonyl]-piperidine-4-carboxylic acid amide]	–	–	–	0.119	4.5	0.54
C=CCN(C(=O)c1cc(N)n2nc(-c3nccs3)nc2c1)C1CCCC1 [Example 382, 5-Amino-2-thiazol-2-yl-[1,2,4]triazolo[1,5-a]pyridine-7-carboxylic acid allyl-cyclopentyl-amide]	13.4	0.0546	0.729	–	–	–
Nc1cc(C(=O)N2CCSCC2)cc2nc(-c3ccc(Cl)o3)nn12 [Example 256, [5-Amino-2-(5-chloro-furan-2-yl)-[1,2,4]triazolo[1,5-a]pyridin-7-yl]-thiomorpholin-4-yl-methanone]	–	–	–	0.0244	17.7	0.43

Continued, values first:

selectivity (A1/A2a) ([1]; ratio KiHA1 divided by KiHA2A)	Ki [1, 2] [µM]	Ki (HA1 adenosine receptor) [µM]	Ki [1, 3] [µM]	selectivity (A1/A2a) [1, 4]	Ki (HA1 adenosine receptor; [5]) [µM]	SMILES
–	–	–	0.0443	13.6	0.601	CN(C)C(=O)c1cc(N)n2nc(-c3ccc(Cl)o3)nc2c1 [Example 248, 5-Amino-2-(5-chloro-furan-2-yl)-[1,2,4]triazolo[1,5-a]pyridine-7-carboxylic acid dimethylamide]
–	–	–	0.0152	8.4	0.128	COc1ccccc1CNC(=O)c1cc(N)n2nc(-c3nccs3)nc2c1 [Example 130, 5-Amino-2-thiazol-2-yl-[1,2,4]triazolo[1,5-a]pyridine-7-carboxylic acid 2-methoxy-benzylamide]
–	–	–	0.0474	4.5	0.216	Nc1cc(C(=O)NCc2ccccc2)cc2nc(-c3ccoc3)nn12 [Example 224, 5-Amino-2-furan-3-yl-[1,2,4]triazolo[1,5-a]pyridine-7-carboxylic acid benzylamide]
–	–	–	0.0732	4.7	0.343	Cc1ccc(-c2nc3cc(C(=O)NCc4ccc(F)cc4)cc(N)n3n2)o1 [Example 213, 5-Amino-2-(5-methyl-furan-2-yl)-[1,2,4]triazolo[1,5-a]pyridine-7-carboxylic acid 4-fluoro-benzylamide]
–	–	–	0.0255	4.4	0.111	Nc1cc(C(=O)NCc2ccccc2Br)cc2nc(-c3cccs3)nn12 [Example 164, 5-Amino-2-thiophen-2-yl-[1,2,4]triazolo[1,5-a]pyridine-7-carboxylic acid 2-bromo-benzylamide]
–	–	–	0.148	2.1	0.314	Nc1cc(C(=O)N2CCN(Cc3ccccc3)CC2)cc2nc(-c3ccc(Br)o3)nn12 [Example 310, [5-Amino-2-(5-bromo-furan-2-yl)-[1,2,4]triazolo[1,5-a]pyridin-7-yl]-(4-benzyl-piperazin-1-yl)-methanone]
–	–	–	0.0397	5.1	0.201	Nc1cc(C(=O)NCc2ccccc2)cc2nc(-c3ccc(Br)o3)nn12 [Example 166, 5-Amino-2-(5-bromo-furan-2-yl)-[1,2,4]triazolo[1,5-a]pyridine-7-carboxylic acid benzylamide]
–	–	–	0.0146	1.5	0.0226	Nc1cc(C(=O)NCc2ccccc2Br)cc2nc(-c3cc(Br)co3)nn12 [Example 175, 5-Amino-2-(4-bromo-furan-2-yl)-[1,2,4]triazolo[1,5-a]pyridine-7-carboxylic acid 2-bromo-benzylamide]
–	–	–	0.0611	3.0	0.184	Nc1cc(C(=O)NCc2ccccc2)cc2nc(-c3ccccn3)nn12 [Example 46, 5-Amino-2-pyridin-2-yl-[1,2,4]triazolo[1,5-a]pyridine-7-carboxylic acid benzylamide]
–	–	–	0.0029	36.8	0.107	CCN(Cc1ccncc1)C(=O)c1cc(N)n2nc(-c3ccc(Cl)o3)nc2c1 [Example 262, 5-Amino-2-(5-chloro-furan-2-yl)-[1,2,4]triazolo[1,5-a]pyridine-7-carboxylic acid ethyl-pyridin-4-ylmethyl-amide]
–	–	–	0.0745	23.5	1.75	Cc1ccc(-c2nc3cc(C(=O)N4CCOCC4)cc(N)n3n2)o1 [Example 139, [5-Amino-2-(5-methyl-furan-2-yl)-[1,2,4]triazolo[1,5-a]pyridin-7-yl]-morpholin-4-yl-methanone]
